Data on 2 molecules can be found in patent publication US6894068B2, “Substituted benzimidazoles as non-nucleoside inhibitors of reverse transcriptase” (The United States of America as represented by the …, priority 1997, dated 2005).

Broadly, the melting point is the temperature of the solid-liquid transition. Usually IC50 stands for the midpoint of a concentration-inhibition curve. Read a low IC50 as higher potency.

In one data set the test system is HIV-1 isolate K103N. Description: Cytopathic cell killing assay, MT-4 cells, isolate K103N. It counts as cell-based. A digest of the protocol:
(§1)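 Antiviral activity was derived from XTT-based viability after six days at 37° C in HIV-1-infected cells. Equivalent infection across isolates was ensured by pre-titering for cell killing or virus production. TI50 was defined as the fold-difference between EC50 and IC50.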
(In general: Damage to the host cells serves as the signal in cytopathic effect assays.)

Data set [1] deals with HIV-1 isolate 4xAZT/Y181C. Description: Cytopathic cell killing assay, MT-4 cells, isolate 4xAZT/Y181C. The data set is classed as cell-based. To be noted: Human immunodeficiency virus 1, MT4, read-out: EC50, isolate 4XAZT/Y181C. The text has this:
(§2) The various HIV isolates tested in the Figures are those corresponding to wild-type virus (NL4-3) and the other strains listed by their RT mutations. The three 4×AZT isolates included in the Figures represent AZT drug-resistant variants. For example, the 4×AZT/L100I isolate has five mutations: four mutations confer increased resistance to AZT, and the other mutation is located within the NNRTI binding pocket. TZB and nevir. (nevirapine) are two well-known NNRTIs, included in this experiment for comparison purposes.
(§3) In this Example, the antiviral and cellular toxicity of NNRTIs was investigated, using the cytopathic cell killing assay described by Yang (Yang et al., “Characteristics of a Group of Non-nucleoside Reverse Transcriptase Inhibitors with Structural Diversity and Potent Anti-Human Immunodeficiency Virus Activity,” Leukemia 9:S75-S85 [1995]). Briefly, in this method cells (e.g., the CEM-SS cell line, available from the NIAID AIDS Research and Reference Program [ARRRP]) were seeded at a density of 5×10^3 cells/well, into the wells of a 96-well microtiter plate. The cells were then infected with HIV virus (either mutant or WT), at a multiplicity of infection (MOI) previously determined to provide complete cell killing by 6 days of culture post-infection (e.g., MOI of 0.01-0.05). Each of the HIV isolates was pre-titered to induce equivalent levels of infection based on cell killing or virus production, prior to their use in these assays. A range of test compound concentrations was added to the wells in triplicate (e.g., serial half-log dilutions) to evaluate inhibition of HIV infection. Controls for each assay included drug controls (drug colorimetric control wells), drug cytotoxicity control wells (cells with drug), virus control wells (cells with virus), and cell viability controls (cells only). Positive control drugs (e.g. AZT and ddC) were also run in parallel.
(§4) After six days of incubation at 37° C., cell viability was determined spectrophotometrically at 450 nm for each well, using the metabolic reduction of XTT to a soluble colored formazan. (See, Gartner and Popovic, “Virus Isolation and Production, in Aldovini and Walker (eds.), Techniques in HIV Research, Stockton Press, NY, pp. […] [1991]; and Nara and Fischinger, “Quantitative Infectivity Assay for HIV-1 and HIV-2, ” Nature 332:469-470 [1988]).
(§5) The in vitro therapeutic index (TI50) was defined as the fold-difference between the EC50 and IC50. The results for the various compounds are included in FIGS. 8 and 19.

The test system of a further data set is HIV-1 isolate Y181C. Description: Cytopathic cell killing assay, MT-4 cells, isolate Y181C. It counts as cell-based. A digest of the protocol: as §1
The test system of data set [2] is HIV-1 isolate 4xAZT/L100I. Description: Cytopathic cell killing assay, MT-4 cells, isolate 4xAZT/L100I. It counts as cell-based. The settings on record: Human immunodeficiency virus 1, MT4, read-out: EC50, isolate 4XAZT/L1001. On the procedure: The various HIV isolates tested in the Figures are those corresponding to wild-type virus (NL4-3) and the other strains listed by their RT mutations. The three 4×AZT isolates included in the Figures represent AZT drug-resistant variants.
Briefly, in this method cells (e.g., the CEM-SS cell line, available from the NIAID AIDS Research and Reference Program [ARRRP]) were seeded at a density of 5×10^3 cells/well, into the wells of a 96-well microtiter plate. The cells were then infected with HIV virus (either mutant or WT), at a multiplicity of infection (MOI) previously determined to provide complete cell killing by 6 days of culture post-infection (e.g., MOI of 0.01-0.05). Each of the HIV isolates was pre-titered to induce equivalent levels of infection based on cell killing or virus production, prior to their use in these assays. A range of test compound concentrations was added to the wells in triplicate (e.g., serial half-log dilutions) to evaluate inhibition of HIV infection. Controls for each assay included drug controls (drug colorimetric control wells), drug cytotoxicity control wells (cells with drug), virus control wells (cells with virus), and cell viability controls (cells only). Positive control drugs (e.g. AZT and ddC) were also run in parallel.
as §4
The in vitro therapeutic index (TI50) was defined as the fold-difference between the EC50 and IC50.

The test system of another data set is HIV-1 isolate A98G. Description: Cytopathic cell killing assay, MT-4 cells, isolate A98G. It counts as cell-based.
Description: as §2, §3, §4, §5

The test system of another data set is HIV-1 isolate Y188C. Description: Cytopathic cell killing assay, MT-4 cells, isolate Y188C. It counts as cell-based. A digest of the protocol: as §1
Another data set relates to HIV-1 isolate K101E. Description: Cytopathic cell killing assay, MT-4 cells, isolate K101E. It counts as cell-based. A digest of the protocol: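 5×10^3 cells/well; HIV-1 isolates pre-titered for equivalent infection, MOI ~0.01-0.05; compound half-log serial dilutions, triplicate; 6 d, 37° C; XTT read at 450 nm; uninfected cells with drug for cytotoxicity.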
The next data set has as its target HIV-1 WT RT (Human immunodeficiency virus type 1 group M subtype B, UniProt P03366). Description: biochemical. The data set is classed as biochemical.
[3] abbreviates: Human immunodeficiency virus 1, MT4, read-out: EC50, isolate K103N, Table 8, MT-4 cells.
Setting [4] is: Human immunodeficiency virus 1, MT4, read-out: EC50, isolate Y181C, Table 8, MT-4 cells.
The mark [5] stands for this setting: Human immunodeficiency virus 1, MT4, read-out: EC50, isolate K101E, Table 8, MT-4 cells.

Where two headings read alike, the source gives them in different places.

With `CCc1cccc2c1nc(-c1c(F)cccc1F)n2Cc1c(F)cccc1F` [Compound 4011, 1-(2,6-difluorobenzyl)-2-(2,6-difluorophenyl)-4-ethylbenzimidazole], the melting point fell in the range of 165 to 166 °C. Also, the EC50 in the data set with HIV-1 isolate K103N (setting [3]) is above 20 µM. In addition, in the data set on HIV-1 isolate K103N (Human immunodeficiency virus 1, MT4, read-out: EC50, isolate K103N, Table 10, values in μM), the EC50 is above 50 µM. The EC50 in data set [1] is above 20 µM. Besides, the EC50 with HIV-1 isolate Y181C (setting [4]) was above 10 µM. For the same molecule, the EC50 in the data set on HIV-1 isolate Y181C (Human immunodeficiency virus 1, MT4, read-out: EC50, isolate Y181C, Table 10, values in μM) is 7.18 µM. In addition, in data set [2], the EC50 amounted to 600 nM. Moreover, the EC50 in the data set on HIV-1 isolate A98G (Human immunodeficiency virus 1, MT4, read-out: EC50, isolate A98G) came out at 8 µM. Besides, the EC50 in the data set with HIV-1 isolate Y188C (Human immunodeficiency virus 1, MT4, read-out: EC50, isolate Y188C) amounted to 5.5 µM. For the same molecule, the EC50 in the data set with HIV-1 isolate K101E (setting [5]) was above 20 µM. In the data set with HIV-1 isolate K101E (Human immunodeficiency virus 1, MT4, read-out: EC50, isolate K101E, Table 10, values in μM), the EC50 is above 50 µM.

With `Nc1cccc2c1nc(-c1c(F)cccc1F)n2Cc1c(F)cccc1F` [Compound 3300, 4-amino-1-(2,6-difluorobenzyl)-2-(2,6-difluorophenyl)benzimidazole], the melting point was 168 to 170 °C. Moreover, in the data set on HIV-1 isolate K103N (setting [3]), the EC50 was above 20 µM. For the same molecule, the EC50 in data set [1] was above 10 µM. Further, the EC50 in the data set on HIV-1 isolate Y181C (setting [4]) came out at 6 µM. Besides, in data set [2], the EC50 came to 300 nM. In addition, the EC50 with HIV-1 isolate A98G (Human immunodeficiency virus 1, MT4, read-out: EC50, isolate A98G, Table 8, MT-4 cells) stood at 1.5 µM. On HIV-1 WT RT, the IC50 came out at 280 nM. Also, at HIV-1 WT RT (Table 7, 1 μM drug, WT HIV-1 RT, read-out: % inhibn (1 μM)), the inhibition at 1 µM was 69%. The EC50 in the data set on HIV-1 isolate Y188C (Human immunodeficiency virus 1, MT4, read-out: EC50, isolate Y188C, Table 8, MT-4 cells) is 2.7 µM. Also, in the data set with HIV-1 isolate Y188C (Human immunodeficiency virus 1, MT4, read-out: EC50, isolate Y188C, Table 10, values in μM), the EC50 was 2 µM. Besides, in the data set on HIV-1 isolate K101E (setting [5]), the EC50 is above 20 µM.
